Results published in paper PMC8231349 (Journal of Enzyme Inhibition and Medicinal Chemistry, 2021).
Where “and” joins values, the source holds several entries; their conditions need not be identical. Equal entries are not always repeated. Values belong to the molecule of their own block, whether it stands above or below them.

Tests used:
[1] = parameters: method as in PMID 29454190; details: predicted; ref [34]; cited from earlier work
[2] = parameters: method as in PMID 29454190; details: predicted, ref [34], cited from earlier work
[3] = tested on: human lung cancer cells (A549); test: MTT cell viability assay, A549; assay type: cell-based; details: 72 h
Description: (§1) Experiments were performed on human prostate cancer cells (DU145; ATCC HTB-81), human lung cancer cells (A549; ATCC CCL-185-LUC2) and human bronchial epithelium cells (BEAS-2B; ATCC CRL-9609). Cells were grown in Dulbecco's modified Eagle's medium (DMEM) supplemented with 10% of heat-inactivated foetal bovine serum (FBS), 100 U/ml penicillin and 100 μg/ml streptomycin (Sigma-Aldrich, Steinheim, Germany). Cells were incubated at 37 °C in a humidified atmosphere with 5% CO2. […] Cells were seeded into 96-well plates at a density of 7,0 × 10[3] cells/well in 100 µl of culture medium. After 24 h, cells were treated with the compounds at three different concentrations (1 µM, 10 µM and 50 µM) for 72 h. Following treatments, 0.5 mg/ml of 3-[4,5-dimethylthiazol-2-yl]-2,5-diphenyltetrazolium bromide (MTT) (Sigma Aldrich) was added to each well and incubated for 4 h at 37 °C. Finally, DMSO was used to dissolve formazan salts and absorbance was measured at 570 nm in a microplate reader (Biotek Synergy-HT). […]
(§2) Compound 3 was preliminarily assessed for its cytotoxic activity towards human prostate and lung cancer cell lines (DU145 and A549, respectively), in which the overexpression of the HO-1 has been confirmed[46]^,[47]. […] Cell survival was calculated compared to untreated controls for 72 h. At the end of treatment, cell viability was evaluated using the MTT assay. […]

[4] = tested on: human prostate cancer cells (DU145); test: MTT cell viability assay, DU145; assay type: cell-based; details: 72 h
Description: as §1, §2

HO-1 = molecular target: T1, HO-1 (Rattus norvegicus, UniProt P06762); test: HO-1 enzymatic activity in the microsomal fraction of rat spleen (bilirubin formation); assay type: biochemical; details: mean ± SD of triplicate assays
T1 construct: selected in order to use the most native (i.e. closest to in vivo) forms of HO-1; from tissue; host or cells: rat spleen microsomal fraction (male Sprague-Dawley rats)
T1 sequence (P06762 1-289): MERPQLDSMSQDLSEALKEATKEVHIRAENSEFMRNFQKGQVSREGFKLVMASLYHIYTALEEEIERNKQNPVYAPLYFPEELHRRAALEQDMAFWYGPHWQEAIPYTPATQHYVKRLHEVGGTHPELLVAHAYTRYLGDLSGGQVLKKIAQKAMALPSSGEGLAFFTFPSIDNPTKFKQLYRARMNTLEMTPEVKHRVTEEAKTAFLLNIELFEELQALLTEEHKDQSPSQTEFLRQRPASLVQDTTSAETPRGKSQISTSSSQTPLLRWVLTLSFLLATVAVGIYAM
Description: Since the dominance of HO-1 protein in the rat spleen has been well documented, HO-1 was obtained from rat spleen as the microsomal fraction prepared by differential centrifugation. This particular microsomal preparation was selected in order to use the most native (i.e. closest to in vivo) forms of HO-1. Spleen (Sprague-Dawley rats) microsomal fractions were prepared according to the procedure outlined by Ryter et al.[33]. The experiments reported in the present paper complied with current Italian law and met the guidelines of the Institutional Animal Care and Use Committee of […] OF HEALTH (Directorate General for Animal Health and Veterinary Medicines) (Italy). […]
Liver cytosol has been used as a source of BVR. […] The 100,000 g supernatant was saved and then stored in small amounts at −80 °C after its protein concentration was measured.
The HO-1 activity was determined by measuring the bilirubin formation using the difference in absorbance at 464 to 530 nm as described by Ryter et al.[33]. […] After recovering the chloroform phase, the amount of bilirubin formed was measured with a double-beam spectrophotometer as OD464-530 nm (extinction coefficient, […] for bilirubin). […]
Inhibition activity assay for HO-1 was performed by extracting the enzyme from the rat spleen microsomal fraction. […] Results are expressed as enzyme inhibition activity (IC50) in μM (Table S2, Supplemental material).

[5] = Chemical stability of 3 in buffer solutions at different pHs (HPLC); assay type: physicochemical; details: 37 °C
Description: The HPLC analysis of samples at various time intervals from in vitro stability in different buffers and porcine esterase solution was performed on Shimadzu Prominence-i LC-2030C 3 D Plus equipped with RID20A. Detector chromatographic separation were carried out using Chromolith SpeedROD RP […], Merck. Spectra were analysed in 200–800 nm range with 1.2 nm resolution. The column was maintained at 30 °C and eluted under gradient conditions from 100% to 0% of eluent A over 3 min, at a flow rate of 5 ml min^−1. Eluent A: water/trifluoroacetic acid (0.1%, v/v); eluent B: acetonitrile/ trifluoroacetic acid (0.1%, v/v).
A stock solution of compound 3 in DMSO (3.0 mg/mL) was prepared. To a test tube containing 0.9 ml of the corresponding Acetate (pH = 2.0) or PBS buffer solution (pH = 7.4 and 8.0, respectively), 0.1 ml of stock solution was added, and the mixture stirred and thermostated in a sand bath at 37 °C. Aliquots (0.1 ml) were withdrawn at specific time intervals and transferred to sample vials containing acetonitrile (0.9 ml). The percentage of compound remaining was followed by HPLC analysis. The retention time (tR) of compound 1, 2, and 3 were 0.74, 0.89, and 0.95 min, respectively. All the experiments were performed in triplicate.
0.001 g of lyophilised powder of esterase from the porcine liver (Sigma-Aldrich, St. Louis, Missouri, USA) was reconstituted in 1.0 ml PBS buffer (0.01 M, pH 7.4) to make an aqueous porcine esterase solution (5 U/mL), and then pre-thermostated at 37 °C. To a test tube containing 1.85 ml of PBS buffer, 0.15 ml from the stock solution of the test compound was added. The mixture was then stirred and thermostated in a sand bath at 37 °C, and 1.0 ml of the porcine esterase solution was added to initiate the enzymatic reaction. For the negative control reaction, the volume of porcine esterase solution was replaced by phosphate buffer. Aliquots (0.3 ml) were withdrawn at 0, 30, 60, 120, 180, and 240 min, and quenched with cold acetonitrile (0.7 ml)[28]. The samples were centrifuged for 6 min at 10,000 rpm, and supernatants were analysed by HPLC to check the amounts (area under the curve, AUC) of the remaining intact compound. All the experiments were performed in triplicate. Pseudo-first-order rate constant for the hydrolysis was determined from the slope of linear plots of the natural logarithm (ln) of the AUC of the peak at time t (AUCt) against time. Half-life (t1/2) was calculated according to Equation (1): (1) t1/2 = ln 2/k were k is the pseudo-first-order rate constant.
The chemical stability of 3 was evaluated at different pH values to mimic physiological conditions, including gastrointestinal (GI) tract (pH = 2.0), human plasma (pH = 7.4), and pancreatic fluid (pH = 8.0). As a result, the pH value strongly affected the chemical stability and hydrolysis rate of the hybrid 3 (Figure 2).

Structure (SMILES): OC(Cn1ccnc1)c1cccc(Br)c1 (centres unmarked) [Compound 1, 1–(3-bromophenyl)-2-(1H-imidazol-1-yl)ethanol]
- Toxicity prediction: Irritant [1]: none
- Toxicity prediction: Mutagenic [1]: none
- Toxicity prediction: Reproductive Effects [1]: none
- Toxicity prediction: Tumorigenic [1]: none
- HIA (%) ([2]; human intestinal absorption): 96.1%
- Papp ([2]; in vitro Caco-2 cell permeability): 29.6 nm/s
- PPB (%) ([2]; in vitro plasma protein binding): 65%
- BBB (Cbrain/Cblood) ([2]; in vivo blood-brain barrier penetration): 0.7 Cbrain/Cblood
- Effect on cell viability ([3]; A549 cells, 1, 10 and 50 μM): no cytotoxic effect
- Effect on cell viability ([4]; DU145 cells, 1, 10 and 50 μM): no cytotoxic effect

- IC50 (HO-1): 105 ± 5.8 µM
- melting point: 64 to 66.5 °C
Structure (SMILES): O=C(O)CCC(=O)OC(Cn1ccnc1)c1cccc(Br)c1 (centres unmarked) [Compound 2, 4‐[1‐(3‐bromophenyl)‐2‐(1H‐imidazol‐1‐yl)ethoxy]‐4‐oxobutanoic acid]

- IC50 (HO-1): 82 ± 2.1 µM
- half-life at 0.15 mg/mL ([5]; PBS buffer without esterase, PBS buffer (pH = 7.4), no esterase, read-out: Half-life (t1/2) of hydrolysis): 28.1 h
- % Compound remaining ([5]; pH = 2.0, 0 h): 100 ± 0.0%
- % Compound remaining ([5]; pH = 2.0, 24 h): 94.2 ± 0.9% and 94.2%
- % Compound remaining ([5]; pH = 2.0, 48 h): 92.2 ± 0.6%
- % Compound remaining ([5]; pH = 2.0, 72 h): 86.8 ± 6.0%
- % Compound remaining ([5]; pH = 2.0, 96 h): 77.1 ± 6.5%
- % Compound remaining ([5]; pH = 2.0, 168 h): 73.5 ± 4.7%
- % Compound remaining ([5]; pH = 7.4, 0 h): 100 ± 0.0%
- % Compound remaining ([5]; pH = 7.4, 24 h): 77.3 ± 3.9% and 77.3%
- % Compound remaining ([5]; pH = 7.4, 48 h): 71.2 ± 4.5%
- % Compound remaining ([5]; pH = 7.4, 72 h): 52.6 ± 3.8%
- % Compound remaining ([5]; pH = 7.4, 96 h): 34.7 ± 2.2%
- % Compound remaining ([5]; pH = 7.4, 168 h): 18.0 ± 4.2%
- % Compound remaining ([5]; pH = 8.0, 0 h): 100 ± 0.0%
- % Compound remaining ([5]; pH = 8.0, 24 h): 50.4 ± 2.4% and 50.4%
- % Compound remaining ([5]; pH = 8.0, 48 h): 36.1 ± 2.1%
- % Compound remaining ([5]; pH = 8.0, 72 h): 19.7 ± 1.6%
Structure (SMILES): O=C(CCC(=O)OC(Cn1ccnc1)c1cccc(Br)c1)OCn1cc(F)c(=O)[nH]c1=O (centres unmarked) [Compound 3, 1‐[1‐(3‐bromophenyl)‐2‐(1H‐imidazol‐1‐yl)ethyl]4‐(5‐fluoro‐2,4‐dioxo‐1,2,3,4‐tetrahydropyrimidin‐1‐yl)methyl butanedioate]

- IC50 ([3]; Homo sapiens, A549 cells, MTT): 0.98 ± 0.13 µM
- IC50 ([4]; Homo sapiens, DU-145, DU145 cells, MTT): 31.7 ± 0.92 µM
Structure (SMILES): O=c1[nH]cc(F)c(=O)[nH]1 [Compound 5-FU, 5-Fluorouracil, reference compound]
